The results in this text go back to patent publication US11214803B2, “Modulators of YAP1 expression” (Ionis Pharmaceuticals, Inc., priority 2019, dated 2022).

Strand notation (5' to 3'): a small letter for the sugar, then the base; units joined by * are phosphorothioate-linked, units joined directly phosphodiester-linked; [ ] holds rarer units or linkages, { } end groups; capitals alone tell only the bases. k = constrained ethyl (cEt); [5mC] = 5-methylcytosine; d = 2'-deoxy (DNA)

The subject of the data set is Yap1 mRNA. In words: Antisense inhibition of human Yap1 in A-431 cells by cEt gapmers, single dose (Example 2, RTS4814). It is filed as cell-based. The gist of the method:
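Read-out is Yap1 mRNA as percent of untreated cells, by real-time RT-PCR (probe set RTS4814) normalized to total RNA via RIBOGREEN. Cells were A-431 dosed with 2,000 nM gapmer without transfection for approximately 48 hours.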

Where [1] appears, read: Table 19, A-431 cells, 5,000 cells per well, free uptake, 2,000 nM modified oligonucleotide, approx. 48 hours, RTS4814, normalized to RIBOGREEN, Yap1 mRNA as percent of untreated control.
Where [2] appears, read: Table 22, Yap1 mRNA as percent of untreated control, 3-10-3 cEt gapmers, single dose.
[3] abbreviates: Table 23, Yap1 mRNA as percent of untreated control, 3-10-3 cEt gapmers, single dose.
Setting [4] is: Table 33, Yap1 mRNA, percent of untreated control, 3-10-3 cEt gapmers targeting SEQ ID NO.: 1, and 2.
Where [5] appears, read: Table 24, Yap1 mRNA as percent of untreated control, 3-10-3 cEt gapmers targeting SEQ ID NO.: 1, and 2.
Setting [6] is: Yap1 mRNA as percent of untreated control, A-431 cells, 3-10-3 cEt gapmers targeting SEQ ID NO.: 1, and 2, Table 31.
Setting [7] is: Table 6, A-431 cells, 5,000 cells per well, free uptake, 2,000 nM modified oligonucleotide, approx. 48 hours, RTS4814, normalized to RIBOGREEN, Yap1 mRNA relative to untreated control cells.

“1074917 (antisense k[5mC]*kA*kA*dG*dT*dT*dA*d[5mC]*dA*dT*d[5mC]*d[5mC]*d[5mC]*kG*kA*kG) [Compound 1074917]”: the “YAP1 (% UTC)” value under setting [1] turned out to be 80 % UTC.
Turning to “1076360 (k[5mC]*kT*kA*dT*dT*dT*dA*dT*d[5mC]*d[5mC]*dT*dA*dG*kT*kT*kA; antisense) [Compound 1076360]”, under setting [2], the “YAP1 (% UTC)” value was 59 % UTC.
Take “1075977 (kG*kA*kT*dT*dA*dA*dA*dA*dG*dT*d[5mC]*dG*dG*kG*k[5mC]*k[5mC]; antisense) [Compound 1075977]”: the “YAP1 (% UTC)” value under setting [3] is reported as 73 % UTC.
Consider “1076229 (kA*kA*kT*dT*dA*dA*d[5mC]*d[5mC]*dT*d[5mC]*dA*dG*dT*kG*kA*kG; antisense) [Compound 1076229]”, for which the “YAP1 (% UTC)” value under setting [1] came out at 91 % UTC.
Regarding “1074803 (kA*kG*kG*d[5mC]*dA*d[5mC]*dT*dA*d[5mC]*dA*dT*dT*dT*kA*kG*kA; antisense) [compound 1074803]”, the “YAP1 (% UTC)” value under setting [4] is recorded as 32 % UTC.
As to “1075370 (k[5mC]*kT*kT*dA*d[5mC]*dG*dA*dA*dT*d[5mC]*dA*d[5mC]*dA*kT*kA*kT; antisense) [Compound 1075370]”, the “YAP1 (% UTC)” value under setting [5] came out at 32 % UTC.
Turning to “1076009 (kT*kA*kG*d[5mC]*dG*dA*dA*dA*dA*dT*dA*dA*d[5mC]*kA*kT*kT; antisense) [Compound 1076009]”, under setting [3], the “YAP1 (% UTC)” value was 69 % UTC.
As for “1074506 (kT*kA*kA*dT*d[5mC]*dG*dA*dG*dA*dT*dT*dT*dA*kA*kA*kT; antisense) [Compound 1074506]”, the “YAP1 (% UTC)” value under setting [5] came to 107 % UTC.
For “1075441 (antisense kG*kA*kA*dT*dT*dA*dA*dA*dG*d[5mC]*dA*dG*dT*kG*k[5mC]*k[5mC]) [compound 1075441]”, the “YAP1 (% UTC)” value under setting [6] was 24 % UTC.
Take “1076179 (kA*kA*kT*dT*dA*dG*d[5mC]*d[5mC]*dA*dA*d[5mC]*d[5mC]*dA*k[5mC]*k[5mC]*kT; antisense) [compound 1076179]”: under setting [4], the “YAP1 (% UTC)” value is reported as 38 % UTC.
As to “1076113 (kT*kG*kA*d[5mC]*dA*dA*dT*dA*dG*d[5mC]*d[5mC]*dA*dA*kT*kG*k[5mC]; antisense) [compound 1076113]”, the “YAP1 (% UTC)” value under setting [6] turned out to be 16 % UTC.
With “1075785 (k[5mC]*kA*kT*dT*dT*dT*dA*dT*dA*dG*dG*dG*d[5mC]*k[5mC]*kA*kT; antisense) [Compound 1075785]”, the “YAP1 (% UTC)” value under setting [3] came to 2 % UTC.
For “1074120 (antisense kG*k[5mC]*kG*dA*dG*dG*d[5mC]*dA*d[5mC]*dT*d[5mC]*dG*dG*kA*k[5mC]*k[5mC]) [Compound 1074120]”, the “YAP1 (% UTC)” value under setting [2] was found to be 50 % UTC.
For the substance “1076522 (antisense kG*k[5mC]*kA*d[5mC]*dT*dA*dA*dA*dG*dG*dA*dG*dT*k[5mC]*kA*kT) [Compound 1076522]”, the “YAP1 (% UTC)” value under setting [5] is on record as 35 % UTC.
For “716564 (k[5mC]*kT*kT*dT*dT*dG*dG*dG*d[5mC]*dA*dA*dA*dG*kT*kT*k[5mC]; antisense) [Compound 716564]”, the “YAP1 (% UTC)” value under setting [7] amounted to 103 % UTC.
On the same count and under the same terms, under “716498 (kG*kA*kA*dG*dG*dG*d[5mC]*d[5mC]*dA*dA*dA*dA*dT*kA*k[5mC]*kT; antisense) [Compound 716498]” stands 92 % UTC.
For the substance “1076274 (kT*kG*kA*dG*dA*dA*dT*dA*dG*dA*dG*d[5mC]*dA*kG*kG*kT; antisense) [compound 1076274]”, the “YAP1 (% UTC)” value (Table 32, Yap1 mRNA, percent of untreated control, 3-10-3 cEt gapmers targeting SEQ ID NO.: 1, and 2) was determined as 9 % UTC.
Consider “1075176 (antisense kA*kA*kT*dT*dA*d[5mC]*d[5mC]*d[5mC]*dG*dG*dG*dA*dA*k[5mC]*kT*kA) [Compound 1075176]”, for which the “YAP1 (% UTC)” value under setting [2] is 70 % UTC.
Consider “1074283 (antisense kA*kA*kA*dA*d[5mC]*dG*dA*dG*dG*dG*dT*d[5mC]*dA*kA*kG*k[5mC]) [Compound 1074283]”, for which, for the setting “Table 25, Yap1 mRNA as percent of untreated control, 3-10-3 cEt gapmers targeting SEQ ID NO.: 1, and 2”, the “YAP1 (% UTC)” value was 12 % UTC.
On to “1076072 (k[5mC]*kA*k[5mC]*dA*dA*dA*dA*dA*d[5mC]*dT*dG*dG*dT*k[5mC]*kT*kG; antisense) [Compound 1076072]”, for which the “YAP1 (% UTC)” value under setting [2] worked out at 18 % UTC.
